From the NIST ThermoML archive (doi:10.1021/je050052+)

Experiment: excess molar enthalpy (molar enthalpy of mixing); xn = mol fraction of the nth substance listed
Settings: Liquid, Flow calorimetry

COC(=O)OC [dimethyl carbonate] + CCO
Settings	excess molar enthalpy [kJ/mol]
298.15 K, 1000 kPa, x1 = 0.05	0.4235
298.15 K, 1000 kPa, x1 = 0.1	0.7868
298.15 K, 1000 kPa, x1 = 0.15	1.057
298.15 K, 1000 kPa, x1 = 0.2	1.275
298.15 K, 1000 kPa, x1 = 0.25	1.446
298.15 K, 1000 kPa, x1 = 0.3	1.56
298.15 K, 1000 kPa, x1 = 0.35	1.641
298.15 K, 1000 kPa, x1 = 0.4	1.683
298.15 K, 1000 kPa, x1 = 0.45	1.701
298.15 K, 1000 kPa, x1 = 0.5	1.693
298.15 K, 1000 kPa, x1 = 0.55	1.655
298.15 K, 1000 kPa, x1 = 0.6	1.58
298.15 K, 1000 kPa, x1 = 0.65	1.498
298.15 K, 1000 kPa, x1 = 0.7	1.385
298.15 K, 1000 kPa, x1 = 0.75	1.24
298.15 K, 1000 kPa, x1 = 0.8	1.064
298.15 K, 1000 kPa, x1 = 0.85	0.8468
313.15 K, 100 kPa, x1 = 0.0521	0.4117
313.15 K, 100 kPa, x1 = 0.098	0.7758
313.15 K, 100 kPa, x1 = 0.1514	1.118
313.15 K, 100 kPa, x1 = 0.1988	1.346
313.15 K, 100 kPa, x1 = 0.2488	1.542
313.15 K, 100 kPa, x1 = 0.3012	1.687
313.15 K, 100 kPa, x1 = 0.3519	1.788
313.15 K, 100 kPa, x1 = 0.4008	1.854
313.15 K, 100 kPa, x1 = 0.4516	1.87
313.15 K, 100 kPa, x1 = 0.5007	1.868
313.15 K, 100 kPa, x1 = 0.5515	1.832
313.15 K, 100 kPa, x1 = 0.6003	1.756
313.15 K, 100 kPa, x1 = 0.6506	1.661
313.15 K, 100 kPa, x1 = 0.699	1.541
313.15 K, 100 kPa, x1 = 0.7513	1.361
313.15 K, 100 kPa, x1 = 0.7987	1.186
313.15 K, 100 kPa, x1 = 0.8497	0.957
313.15 K, 100 kPa, x1 = 0.9012	0.6579
313.15 K, 100 kPa, x1 = 0.9504	0.338
313.15 K, 1000 kPa, x1 = 0.052	0.4345
313.15 K, 1000 kPa, x1 = 0.0979	0.7941
313.15 K, 1000 kPa, x1 = 0.1513	1.129
313.15 K, 1000 kPa, x1 = 0.1986	1.361
313.15 K, 1000 kPa, x1 = 0.2487	1.557
313.15 K, 1000 kPa, x1 = 0.3011	1.701
313.15 K, 1000 kPa, x1 = 0.3517	1.797
313.15 K, 1000 kPa, x1 = 0.4006	1.856
313.15 K, 1000 kPa, x1 = 0.4515	1.881
313.15 K, 1000 kPa, x1 = 0.5006	1.872
313.15 K, 1000 kPa, x1 = 0.5513	1.83
313.15 K, 1000 kPa, x1 = 0.6002	1.762
313.15 K, 1000 kPa, x1 = 0.6504	1.662
313.15 K, 1000 kPa, x1 = 0.6988	1.539
313.15 K, 1000 kPa, x1 = 0.7511	1.363
313.15 K, 1000 kPa, x1 = 0.7986	1.181
313.15 K, 1000 kPa, x1 = 0.8496	0.9558
313.15 K, 1000 kPa, x1 = 0.9011	0.6492
313.15 K, 1000 kPa, x1 = 0.9504	0.327
313.15 K, 10000 kPa, x1 = 0.0517	0.4067
313.15 K, 10000 kPa, x1 = 0.1019	0.7966
313.15 K, 10000 kPa, x1 = 0.1505	1.099
313.15 K, 10000 kPa, x1 = 0.2019	1.352
313.15 K, 10000 kPa, x1 = 0.2517	1.539
313.15 K, 10000 kPa, x1 = 0.2998	1.675
313.15 K, 10000 kPa, x1 = 0.3503	1.772
313.15 K, 10000 kPa, x1 = 0.3992	1.832
313.15 K, 10000 kPa, x1 = 0.45	1.858
313.15 K, 10000 kPa, x1 = 0.4991	1.851
313.15 K, 10000 kPa, x1 = 0.5498	1.812
313.15 K, 10000 kPa, x1 = 0.5987	1.746
313.15 K, 10000 kPa, x1 = 0.6491	1.648
313.15 K, 10000 kPa, x1 = 0.7005	1.517
313.15 K, 10000 kPa, x1 = 0.75	1.363
313.15 K, 10000 kPa, x1 = 0.8004	1.167
313.15 K, 10000 kPa, x1 = 0.8489	0.9462
313.15 K, 10000 kPa, x1 = 0.9006	0.6554
313.15 K, 10000 kPa, x1 = 0.9501	0.321
328.15 K, 1000 kPa, x1 = 0.05	0.4825
328.15 K, 1000 kPa, x1 = 0.1	0.8983
328.15 K, 1000 kPa, x1 = 0.15	1.221
328.15 K, 1000 kPa, x1 = 0.2	1.492
328.15 K, 1000 kPa, x1 = 0.25	1.712
328.15 K, 1000 kPa, x1 = 0.3	1.861
328.15 K, 1000 kPa, x1 = 0.35	1.971
328.15 K, 1000 kPa, x1 = 0.4	2.043
328.15 K, 1000 kPa, x1 = 0.45	2.071
328.15 K, 1000 kPa, x1 = 0.5	2.068
328.15 K, 1000 kPa, x1 = 0.55	2.031
328.15 K, 1000 kPa, x1 = 0.6	1.967
328.15 K, 1000 kPa, x1 = 0.65	1.869
328.15 K, 1000 kPa, x1 = 0.7	1.721
328.15 K, 1000 kPa, x1 = 0.75	1.528
328.15 K, 1000 kPa, x1 = 0.8	1.312
328.15 K, 1000 kPa, x1 = 0.85	1.049
328.15 K, 1000 kPa, x1 = 0.9	0.7288
328.15 K, 1000 kPa, x1 = 0.95	0.3665
